Biological target: Ypt1p (His6-Ypt1p 1-180) (Saccharomyces cerevisiae, UniProt P01123)
Experiment: stopped-flow fluorescence
Assay type: binding
Settings: pH 8.0, 25 °C, 5 mM MgCl2; labelled compound; nucleotide-free Ypt1p; association rate constant

Chain of Ypt1p (His6-Ypt1p 1-180) (P01123 1-180): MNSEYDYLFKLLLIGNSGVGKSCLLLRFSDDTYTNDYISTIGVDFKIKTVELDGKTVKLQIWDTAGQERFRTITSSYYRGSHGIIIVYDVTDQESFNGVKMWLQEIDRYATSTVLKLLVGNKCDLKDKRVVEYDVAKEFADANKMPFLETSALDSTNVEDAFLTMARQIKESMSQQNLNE

CNc1ccccc1C(=O)O[C@H]1C[C@H](n2cnc3c(=O)[nH]c(N)nc32)O[C@@H]1COP(=O)(O)OP(=O)(O)O [mant-dGDP]
Value: 0.096 (±0.004) μM^-1 s^-1
